Experimental data reported in patent US9981997B2, “Chemical reagents for attaching affinity molecules on surfaces” (ARIZONA BOARD OF REGENTS ON BEHALF OF ARIZONA STATE …, priority 2013, dated 2018).

Target: T1, thrombin (Homo sapiens, UniProt P00734)
T1 construct: protein cognates human α-thrombin and human α5β1-integrin immobilized on mica surfaces; purchased Abeam (so in the source)
Experiment: AFM recognition imaging of thrombin on mica
Format: binding
Conditions: conjugate on Ni-coated MacMode silicon tip; protein 50 pg/μL
Text: The AFM based recognition imaging is an effective tool for clinical diagnostics. The attachment and click chemistry of the disclosure works well in combination with the RI technique. Prior to this disclosure, the recognition imaging of clinically relevant proteins thrombin and integrin had not been reported. […] Linker 6a was tailored for RI. Its conjugate D-1a or P-1a was attached to Ni-coated MacMode tips (from Nanoworld) following the same protocol above mentioned. The protein samples (thrombin or α5β1 integrin) were deposited on mica using the same glutaraldehyde chemistry. However, the optimal protein concentration (50 pg/μL in 1×PBS buffer, pH 7.4) for the RI was […] lower than that for the force measurements, which was pre-determined by imaging the surface with bare AFM tips in the air mode, ensuring that the protein molecules were well distributed in a predefined area. For one measurement, only […] of protein sample is needed in the current setup. Thus, a few femtomoles of proteins can readily be detected by the AFM based recognition imaging. […] RI simultaneously produces both topographic and recognition images. Each bright round spot in the topographic image represents a protein molecule (thrombin in Panel A and integrin in panel D of FIG. 16). […]

D-1a: thrombin-binding DNA aptamer 5′-GGTTGGTGTGGTTGG, 3′-thiol, joined to PEG linker 6a by Michael addition (DNA, backbone not given here; 3'-thiol joined to PEG linker 6a by Michael addition)
recognition of thrombin (topography vs recognition image): About 77%
